# Measurements reported in patent US11963962B2, “Platelet count-agnostic methods of treating myelofibrosis” (Sierra Oncology, Inc., priority 2018, dated 2024).
# System: myelofibrosis
# Test: SIMPLIFY-1 Phase 3 trial: transfusion independence and TD to TI conversion
# Format: in vivo, human
# Conditions: for TI rate Responders / TI rate proportion (Wilson 95% CI) / TI rate Absolute risk difference (Newcombe 95% CI): SIMPLIFY 1, week 24; for TI rate Absolute risk difference (Newcombe 95% CI) / TD to 12w rolling TI Absolute risk difference (Newcombe 95% CI) / TD to W24 TI Absolute risk difference (Newcombe 95% CI): MMB vs Control
# Text: The improved outcome from MMB therapy that results from practicing the subject methods can be manifested as an improvement in one or more clinical endpoints (e.g., as described herein), such as anemia response, in spleen response and/or symptom response. By “anemia response” is meant an increase in the patient's hemoglobin level or a patient who was transfusion dependent becoming transfusion independent. Desirably, a minimum increase in hemoglobin of 0.5 g/dL, such as 1.0 g/dL 1.5 g/dL or 2.0 g/dL lasting a minimum of 8 weeks is achieved, which is the level of improvement specified in the International Working Group (IWG) consensus criteria. However, smaller, but still medically significant, increases in hemoglobin are also considered to be within the term “anemia response”. “Transfusion independence” is an anemia endpoint and refers to a subject who required no RBC transfusions over a 12 week period and had no hemoglobin levels less than 8 g/dL to 8.5 g/dL over the 12 week period. In some embodiments, the 12 week period of transfusion independence is the terminal 12 weeks of a 24 week study period. By red blood cell (RBC) transfusion independence rate at week 24 of a study is meant the proportion of subjects who were transfusion independent at week 24, excluding cases associated with clinically overt bleeding.
# In the SIMPLIFY-1 trial (NCT01969838), the efficacy and safety of MMB versus ruxolitinib (RUX) was studied in patients with myelofibrosis who were naïve to treatment with a JAK inhibitor and a platelet count of ≥50×10^9/L. Patients (N=432) with high risk or intermediate-2 risk or symptomatic intermediate-1 risk myelofibrosis received 24 weeks of treatment with 200 mg MMB once daily or 20 mg RUX twice a day (or per label), after which all patients could receive open-label momelotinib. […] The primary endpoint was a reduction by at least 35% in the spleen volume at 24 weeks compared with baseline.
# FIG. 8A: SIMPLIFY-1 study of MMB in a first line population previously untreated with JAKi. For SIMPLIFY-1, the goal was non-inferiority over ruxolitinib (RUX) (MMB: N=215 subjects, and RUX: N=217 subjects). FIG. 8B: SIMPLIFY-2 study of second line population of anemic or thrombocytopenic subjects previously treated with RUX (red blood cell (RBC) transfusions on RUX=64%. RUX dose adjustment for: thrombocytopenia=21%; anemia/hematoma=35%). For SIMPLIFY-2, the goal was superiority over best available treatment (BAT) (MMB: N=104 subjects, and BAT: N=52 subjects). In both SIMPLIFY-1 and SIMPLIFY: Primary endpoint: >=35% reduction in spleen volume at 24 weeks. Secondary endpoints: Total symptom score (TSS) response at 24 weeks. Effects on RBC transfusion requirements.
# The SIMPLIFY 1 clinical trial data was reanalyzed for subgroups of subjects having particular baseline platelet counts in the MMB versus RUX arms of the study.
# Patient data was analyzed according to the following baseline platelet count (PLT) subgroups and in particular according to the threshold PLT of 150×10^9/L: 1) PLT<50×10^9/L; 2) 50×10^9/L≤PLT<100×10^9/L; 3) 100×10^9/L≤PLT<150×10^9/L. The reanalyzed data is presented in Table 13 (SIMPLIFY 1). Selected data is also illustrated in the following figures.
# [1] = SIMPLIFY 1, 50 ≤ PLT < 100 ×10^9/L
# [2] = SIMPLIFY 1, 100 ≤ PLT < 150 ×10^9/L
# [3] = SIMPLIFY-1, switch from Transfusion Dependent to Independent
structure (smiles),measurement,setting,value
"Cl.N#CCNC(=O)c1ccc(-c2ccnc(Nc3ccc(N4CCOCC4)cc3)n2)cc1 [MMB, N-(cyanomethyl)-4-(2-(4-morpholinophenylamino)pyrimidin-4-yl)benzamide]",patients with transfusion independence promoted and maintained (TI rate),SIMPLIFY 1,66%
same,TI rate Responders,50 ≤ PLT < 100 ×10^9/L,11
same,TI rate proportion (Wilson 95% CI),50 ≤ PLT < 100 ×10^9/L,0.61
same,TI rate Absolute risk difference (Newcombe 95% CI),50 ≤ PLT < 100 ×10^9/L,0.22
same,TI rate Responders,100 ≤ PLT < 150 ×10^9/L,18
same,TI rate proportion (Wilson 95% CI),100 ≤ PLT < 150 ×10^9/L,0.62
same,TI rate Absolute risk difference (Newcombe 95% CI),100 ≤ PLT < 150 ×10^9/L,0.17
same,TI rate Responders,ITT,143
same,TI rate proportion (Wilson 95% CI),ITT,0.67
same,TI rate Absolute risk difference (Newcombe 95% CI),ITT,0.17
same,TD to 12w rolling TI Responders,[1],4
same,TD to 12w rolling TI proportion (Wilson 95% CI),[1],0.40
same,TD to W24 TI Responders,[1],5
same,TD to W24 TI proportion (Wilson 95% CI),[1],0.50
same,TD to 12w rolling TI Absolute risk difference (Newcombe 95% CI),[1],0.22
same,TD to W24 TI Absolute risk difference (Newcombe 95% CI),[1],0.32
same,TD to 12w rolling TI Responders,[2],5
same,TD to 12w rolling TI proportion (Wilson 95% CI),[2],0.45
same,TD to W24 TI Responders,[2],4
same,TD to W24 TI proportion (Wilson 95% CI),[2],0.36
same,TD to 12w rolling TI Absolute risk difference (Newcombe 95% CI),[2],0.15
same,TD to W24 TI Absolute risk difference (Newcombe 95% CI),[2],0.21
same,TD to 12w rolling TI Responders,"SIMPLIFY 1, ITT",19
same,TD to 12w rolling TI proportion (Wilson 95% CI),"SIMPLIFY 1, ITT",0.36
same,TD to W24 TI Responders,"SIMPLIFY 1, ITT",16
same,TD to W24 TI proportion (Wilson 95% CI),"SIMPLIFY 1, ITT",0.30
same,TD to 12w rolling TI Absolute risk difference (Newcombe 95% CI),"SIMPLIFY 1, ITT",0.11
same,TD to W24 TI Absolute risk difference (Newcombe 95% CI),"SIMPLIFY 1, ITT",0.13
same,Week 24 TI rate,"SIMPLIFY 1, ITT, all patients",67%
same,Week 24 TI rate,"SIMPLIFY 1, ITT, platelets 50-100 (subgroup 2)",61%
same,Week 24 TI rate,"SIMPLIFY 1, ITT, platelets 100-150 (subgroup 3)",62%
same,Week 24 TI rate,"SIMPLIFY 1, baseline TSS ≥ 6, all patients",67%
same,Week 24 TI rate,"SIMPLIFY 1, baseline TSS ≥ 6, platelets 50-100 (subgroup 2)",64%
same,Week 24 TI rate,"SIMPLIFY 1, baseline TSS ≥ 6, platelets 100-150 (subgroup 3)",68%
same,Week 24 TI rate,"SIMPLIFY 1, baseline TSS ≥ 10, all patients",67%
same,Week 24 TI rate,"SIMPLIFY 1, baseline TSS ≥ 10, platelets 50-100 (subgroup 2)",64%
same,Week 24 TI rate,"SIMPLIFY 1, baseline TSS ≥ 10, platelets 100-150 (subgroup 3)",68%
same,≥8 week transfusion independence rate,[3],58.5%
same,≥12 week transfusion independence rate,[3],49.1%
